Assay results from patent US20060178359A1, “Tricyclic compound, process for producing the same, and use” (priority 2003, published 2006).

Biological target: T1, human CCR5 (Homo sapiens, UniProt P51681)
T1 construct: expressed in transfected cells
Assay: inhibition of [125I]-RANTES binding to CCR5/CHO cells
Settings: test compound 1 μM, 100 pM [125I]-RANTES, room temperature, 40 minutes
Experimental: (1) Cloning of Human CCR5 Chemokine Receptor
Cloning of a CCR5 gene was conducted from human spleen cDNA by a PCR method. Using 0.5 ng of spleen cDNA (Toyobo Co., Ltd., QUICK-Clone cDNA) as a template, the PCR reaction was carried out in a DNA Thermal Cycler 480 (Perkin Elmer) using a TaKaRa EX Taq (Takara Shuzo Co., Ltd.) (reaction conditions: 30 cycles of treatments at 95° C. for 1 minute, at 60° C. for 1 minute, and at 75° C. for 5 minutes) by adding 25 pmol of primers, SEQ ID NO. 1 (sequence length: 34; sequence type: nucleic acid; number of chains: a single chain; topology: linear; sequence kind: other nucleic acid, synthetic DNA) described in Experimental Example (1) of WO 99/32100, and SEQ ID NO. 2 (sequence length: 34; sequence type: nucleic acid; number of chains: a single chain; topology: linear; sequence kind: other nucleic acid, synthetic DNA) described in Experimental Example (1) of WO 99/32100, respectively, which were prepared by referring to the base sequence of the CCR5 gene described by Samson et al. (Biochemistry 35 (11), 3362-3367 (1996)). The PCR products were subjected to agarose gel electrophoresis to collect DNA fragments of about 1.0 kb. Then, the CCR5 gene was cloned using an Original TA Cloning Kit (Funakoshi Co., Ltd.).
(2) Preparation of Plasmid for Expression of Human CCR5
The plasmids obtained above were digested with restriction enzymes XbaI (Takara Shuzo Co., Ltd.) and BamHI (Takara Shuzo Co., Ltd.), and subjected to agarose gel electrophoresis to collect DNA fragments of about 1.0 kb. The DNA fragments and a plasmid pcDNA3.1 (Funakoshi Co., Ltd.) for expression in animal cells, which was previously digested with XbaI and BamHI, were mixed and ligated by DNA Ligation Kit Ver. 2 (Takara Shuzo Co., Ltd.). Transformation of E. coli JM109 competent cells (Takara Shuzo Co., Ltd.) gave plasmid pCKR5.
(3) Introduction of the Plasmid for Expression of Human CCR5 into CHO-K1 Cells and Expression Thereof
CHO-K1 cells grown in a 750 ml tissue culture flask (Becton Dickinson) using Ham's F12 medium (Nihon Pharmaceutical Co., Ltd.) containing 10% fetal bovine serum (Lifetech Oriental) were collected from the flask by using 0.5 g/L trypsin-0.2 g/L EDTA (Lifetech Oriental). The cells were then washed with PBS (Lifetech Oriental), centrifuged (1000 rpm, 5 minutes), and suspended in PBS. Next, DNA was introduced into the cells using Gene Pulser (Bio-Rad Laboratories Inc.) under the following conditions. Namely, 8×10^6 cells and 10 μg of plasmid pCKR5 for expression of human CCR5 were added into a cuvette of a 0.4 cm-gap, and electroporation was carried out at an electric voltage of 0.25 kV and a capacitance of 960 μF. Subsequently, the cells were transferred into Ham's F12 medium containing 10% fetal bovine serum, and incubated for 24 hours. The cells were again collected, centrifuged, and then suspended in Ham's F12 medium containing 10% fetal bovine serum and Geneticin (Lifetech Oriental) at a concentration of 500 μg/ml. The suspension of cells was diluted to a concentration of 10^4 cells/ml, and inoculated on a 96-well plate (Becton Dickinson) to give Geneticin-resistant strains.
Subsequently, the Geneticin-resistant strains were cultured in the 96-well plate (Becton Dickinson), and then CCR5-expressing cells were selected from the resistant strains. […] The cells to which the ligand bound specifically, i.e., CCR5/CHO strains, were selected by measurement of radioactivity by γ-counter. […]

T1 sequence (P51681 whole entry): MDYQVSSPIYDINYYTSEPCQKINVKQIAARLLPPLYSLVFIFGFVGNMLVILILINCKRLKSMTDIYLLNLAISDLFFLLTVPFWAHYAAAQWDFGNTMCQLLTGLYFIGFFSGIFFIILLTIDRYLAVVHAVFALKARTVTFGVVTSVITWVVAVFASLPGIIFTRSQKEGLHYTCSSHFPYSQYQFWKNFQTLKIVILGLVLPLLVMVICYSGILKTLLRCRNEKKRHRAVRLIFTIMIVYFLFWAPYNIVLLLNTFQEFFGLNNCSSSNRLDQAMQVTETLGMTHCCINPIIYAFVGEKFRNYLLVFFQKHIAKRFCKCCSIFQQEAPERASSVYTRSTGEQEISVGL

Row | SMILES | Binding Inhibitory Ratio (%)
1 | CCCCOCCOc1ccc(-c2ccc3c(c2)C=C(C(=O)Nc2ccc([S+]([O-])Cc4cncn4CCC)cc2)CCC2CCCCN32)cc1 (centres unmarked) [Compound 8, (Ss)-10-[4-(2-butoxyethoxy)phenyl]-N-[[4-[(1-propyl-1H-imidazol-5-yl)methyl]sulfinyl]phenyl]-2,3,4,4a,5,6-hexahydropyrido[1,2-a][1]benzazocine-6-carboxamide] | 97
2 | CCCCOCCOc1ccc(-c2cnc3c(c2)C=C(C(=O)Nc2ccc([S@@+]([O-])Cc4cncn4CCC)cc2)CC[C@@H]2CCCN32)cc1 [Compound 16, (8aR,Ss)-3-[4-(2-butoxyethoxy)phenyl]-N-[4-[[(1-propyl-1H-imidazol-5-yl)methyl]sulfinyl]phenyl]-7,8,8a,9,10,11-hexahydropyrido[3,2-g]pyrrolo[1,2-a]azocine-6-carboxamide] | 94
3 | CCCCOCCOc1ccc(-c2cnc3c(c2)C=C(C(=O)Nc2ccc([S@@+]([O-])Cc4cncn4CCC)cc2)CC[C@H]2CCCN32)cc1 [Compound 17, (8aS,Ss)-3-[4-(2-butoxyethoxy)phenyl]-N-[4-[[(1-propyl-1H-imidazol-5-yl)methyl]sulfinyl]phenyl]-7,8,8a,9,10,11-hexahydropyrido[3,2-g]pyrrolo[1,2-a]azocine-6-carboxamide] | 98
4 | CCCCOCCOc1ccc(-c2ccc3c(c2)C=C(C(=O)Nc2ccc([S+]([O-])Cc4cncn4CCC)cc2)CCC2CCCN32)cc1 (centres unmarked) [Compound 5, (Ss)-9-[4-(2butoxyethoxy)phenyl]-N-[4-[[(1-propyl-1H-imidazol-5-yl)methyl]sulfinyl]phenyl]-1,2,3,3a,4,5-hexahydropyrrolo[1,2-a][1]benzazocine-6-carboxamide] | 96
5 | CCCCOCCOc1ccc(-c2cnc3c(c2)C=C(C(=O)Nc2ccc([S@@+]([O-])Cc4cncn4CCC)cc2)CCC2CCCN32)cc1 (some centres unmarked) [Compound 15, (Ss)-3-[4-(2-butoxyethoxy)phenyl]-N-[4-[[(1-propyl-1H-imidazol-5-yl)methyl]sulfinyl]phenyl]-7,8,8a,9,10,11-hexahydropyrido[3,2-g]pyrrolo[1,2-a]azocine-6-carboxamide] | 100
